According to PMC3859723 (Biochemistry, 2013):

Legend:
[1] = target: R. sphaeroides cytochrome c oxidase (RsCcO) wild-type (Cereibacter sphaeroides, UniProt P33517+Q03736); experiment: biochemical; assay type: biochemical, Rhodobacter sphaeroides; settings: for Shape of response in ligand titration: activation at low ligand concentration followed by inhibition at higher concentration
[2] = target: T1, RsCcO E101A mutant (Cereibacter sphaeroides, UniProt P33517+Q03736, E101A); settings: cited from earlier work
[3] = target: T1, RsCcO E101A mutant; experiment: biochemical; design: species or system Rhodobacter sphaeroides

R. sphaeroides cytochrome c oxidase (RsCcO) wild-type, sequence (P33517 whole entry): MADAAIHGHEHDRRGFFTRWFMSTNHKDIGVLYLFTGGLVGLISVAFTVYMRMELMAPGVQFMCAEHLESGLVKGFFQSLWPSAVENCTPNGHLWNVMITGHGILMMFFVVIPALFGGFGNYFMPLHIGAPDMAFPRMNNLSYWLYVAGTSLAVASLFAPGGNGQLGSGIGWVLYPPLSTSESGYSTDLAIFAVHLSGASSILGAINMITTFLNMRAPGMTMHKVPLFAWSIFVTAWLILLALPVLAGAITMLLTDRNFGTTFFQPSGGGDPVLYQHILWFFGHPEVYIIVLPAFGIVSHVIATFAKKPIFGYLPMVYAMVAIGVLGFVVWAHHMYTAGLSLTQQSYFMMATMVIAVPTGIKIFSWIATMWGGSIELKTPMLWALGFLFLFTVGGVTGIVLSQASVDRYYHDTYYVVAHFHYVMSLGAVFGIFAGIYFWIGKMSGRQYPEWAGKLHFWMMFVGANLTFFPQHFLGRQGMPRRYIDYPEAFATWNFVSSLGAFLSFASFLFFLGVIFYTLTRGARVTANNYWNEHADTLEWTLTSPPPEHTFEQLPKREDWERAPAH
R. sphaeroides cytochrome c oxidase (RsCcO) wild-type, sequence (Q03736 26-303): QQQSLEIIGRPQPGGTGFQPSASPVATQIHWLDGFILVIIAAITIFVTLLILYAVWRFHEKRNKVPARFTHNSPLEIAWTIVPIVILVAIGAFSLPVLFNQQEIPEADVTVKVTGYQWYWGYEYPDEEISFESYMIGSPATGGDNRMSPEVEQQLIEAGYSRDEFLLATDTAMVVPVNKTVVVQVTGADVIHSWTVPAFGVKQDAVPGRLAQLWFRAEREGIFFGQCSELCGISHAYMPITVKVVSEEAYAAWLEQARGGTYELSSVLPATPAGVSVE
T1 sequence (P33517 whole entry): as the sequence (P33517 whole entry) above
T1 sequence (Q03736 26-303 E101A): as the sequence (Q03736 26-303) above, with E76A counted along it

CC(C)=CCC/C(C)=C/CC/C(C)=C/CO[P@@](=O)(O)OP(=O)(O)O (stereo in doubt) [farnesyl diphosphate]
Effect on RsCcO activity at maximal ligand concentration ([1]; WT, saturating cytochrome c): no significant effect

Nc1ncnc2c1ncn2[C@@H]1O[C@H](COP(=O)(O)OP(=O)(O)O)[C@@H](O)[C@H]1O [ADP]
Effect on RsCcO activity at maximal ligand concentration ([1]; WT, saturating cytochrome c): no significant effect

Nc1ncnc2c1ncn2[C@@H]1O[C@H](COP(=O)(O)OP(=O)(O)NP(=O)(O)O)[C@@H](O)[C@H]1O [ATP analog, adenosine 5′-(β, γ-imido) triphosphate]
Effect on E101A mutant activity [2]: very low stimulation and no inhibition of activity | Competition with DOC inhibition of RsCcO ([1]; WT, 5 mM ATP analog, DOC 0–2 mM, saturating cytochrome c): prevented DOC in the 0–2 mM range from inhibiting RsCcO activity | Effect of ligand alone on RsCcO activity ([1]; WT, 5 mM ligand, saturating cytochrome c): no effect | Shape of response in ligand titration ([1]; WT, saturating cytochrome c): biphasic response

C[C@H](CCC(=O)O)[C@H]1CC[C@H]2[C@@H]3CC[C@@H]4C[C@H](O)CC[C@]4(C)[C@H]3C[C@H](O)[C@]12C [DOC, deoxycholate]
IC50 [1]: 1400 µM | Mode of inhibition with respect to cytochrome c ([1]; WT, 0–30 μM cytochrome c): noncompetitive inhibition | Maximal lowering of RsCcO activity ([1]; WT, saturating cytochrome c): more than 90% | Mode of inhibition with respect to cytochrome c ([3]; E101A mutant, 0–30 μM cytochrome c): noncompetitive inhibition

Cc1cc2nc3c(=O)[nH]c(=O)nc-3n(C[C@H](O)[C@H](O)[C@H](O)COP(=O)(O)OP(=O)(O)OC[C@H]3O[C@@H](n4cnc5c(N)ncnc54)[C@H](O)[C@@H]3O)c2cc1C [FAD]
Effect on RsCcO activity at maximal ligand concentration ([1]; WT, saturating cytochrome c): no significant effect

CC(=O)O[C@H]1C[C@@]2(C)[C@@H](C[C@@H](O)[C@H]3[C@@]4(C)CC[C@@H](O)[C@@H](C)[C@@H]4CC[C@@]32C)/C1=C(\CCC=C(C)C)C(=O)O [Fusidic acid, fusidic acid]
IC50 [1]: 3400 µM | Ki [1]: 2500 µM | Shape of response in ligand titration ([1]; WT, saturating cytochrome c): biphasic response

Nc1nc2c(ncn2[C@@H]2O[C@H](COP(=O)(O)OP(=O)(O)O)[C@@H](O)[C@H]2O)c(=O)[nH]1 [GDP]
Effect on E101A mutant activity [2]: very low stimulation and no inhibition of activity

NC(=O)c1ccc[n+]([C@@H]2O[C@H](COP(=O)([O-])OP(=O)(O)OC[C@H]3O[C@@H](n4cnc5c(N)ncnc54)[C@H](O)[C@@H]3O)[C@@H](O)[C@H]2O)c1 [NAD^+]
Effect on RsCcO under low or high concentrations of cytochrome c ([1]; WT, 0–30 μM cytochrome c): failed to affect RsCcO | Effect on RsCcO activity at maximal ligand concentration ([1]; WT, saturating cytochrome c): no significant effect

C[C@]12CCC(=O)C=C1CC[C@@H]1[C@@H]2[C@@H](O)C[C@]2(C=O)[C@@H](C(=O)CO)CC[C@@H]12 [aldosterone]
Effect on RsCcO under low or high concentrations of cytochrome c ([1]; WT, 0–30 μM cytochrome c): failed to affect RsCcO | Effect on RsCcO activity at maximal ligand concentration ([1]; WT, saturating cytochrome c): no significant effect

C[C@]12CC[C@@H]3c4ccc(O)cc4CC[C@H]3[C@@H]1CC[C@@H]2O [estradiol]
Effect on RsCcO under low or high concentrations of cytochrome c ([1]; WT, 0–30 μM cytochrome c): failed to affect RsCcO | Effect on RsCcO activity at maximal ligand concentration ([1]; WT, saturating cytochrome c): no significant effect

C[C@]12CCC(=O)C=C1CC[C@@H]1[C@@H]2[C@@H](O)C[C@@]2(C)[C@H]1CC[C@]2(O)C(=O)CO [hydrocortisone]
Effect on RsCcO under low or high concentrations of cytochrome c ([1]; WT, 0–30 μM cytochrome c): failed to affect RsCcO | Effect on RsCcO activity at maximal ligand concentration ([1]; WT, saturating cytochrome c): no significant effect

CC1=C(/C=C/C(C)=C/C=C/C(C)=C/C(=O)O)C(C)(C)CCC1 [retinoic acid]
IC50 [1]: 1700 µM | Ki [1]: 140 µM | Shape of response in ligand titration ([1]; WT, saturating cytochrome c): biphasic response | IC50 [3]: 190 µM

C[C@]12CC[C@H]3[C@@H](CCC4=CC(=O)CC[C@@]43C)[C@@H]1CC[C@@H]2O [testosterone]
Effect on RsCcO under low or high concentrations of cytochrome c ([1]; WT, 0–30 μM cytochrome c): failed to affect RsCcO | Effect on RsCcO activity at maximal ligand concentration ([1]; WT, saturating cytochrome c): no significant effect

cytochrome c: purified bovine heart cytochrome c used as the substrate
Km ([1]; read-out: Km of cytochrome c, RsCcO WT and E101A, unchanged by DOC inhibition): ~1 µM
